Results on nine compounds are retold here after ChEMBL document CHEMBL1201862, “PubChem BioAssay data set” (2004).

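Cells were grown in 96-well plates and exposed to each compound for 48 hours at five concentrations; endpoints were interpolated linearly between bracketing concentrations, or set to the highest concentration if not reached. The concentration for 50% growth inhibition is given as GI50.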 Calls of active or inactive are those of the source. Cut-off read from the data, not from the text of the source: active = GI50 up to about 1.1 µM and inactive = higher.

Some test systems named below: SNB-19; SF-539; SK-MEL-28; SW-620; K562; Malme-3M; SR; U-251; NCI-H522; UO-31; DU-145; RXF 393; A549; SF-295; SNB-75; OVCAR-3; A498; KM12; Hs-578T.
Common to all, as to experiment: NCI anticancer screen, dose series, 48 h

Take `C=C1C(=O)OC2/C=C(/C)C3(O)OC(C)(CC(OC(=O)C(C)C)C12)CC3OC(C)=O` (configuration not stated): the GI50 with SNB-19 was 15.3 µM (inactive); in the experiment with SF-539, 3.05 µM (inactive); in the experiment with SK-MEL-28, 7.48 µM (inactive); with SW-620 it was 4.19 µM (inactive); in the experiment with K562, 2.96 µM (inactive); in the experiment on Malme-3M, 9.91 µM (inactive). Further, the GI50 was 2.52 µM (inactive) in the experiment with SR; 8 µM (inactive) in the experiment with U-251; 1.91 µM (inactive) in the experiment with NCI-H522; 6.17 µM (inactive) in the experiment on UO-31; 8.26 µM (inactive) in the experiment on DU-145; 1.47 µM (inactive) with RXF 393. Moreover, the GI50 in the experiment with A549 is 10.8 µM (inactive); with SF-295, 9.75 µM (inactive); in the experiment with SNB-75 it was 47.5 µM (inactive); with OVCAR-3, 11.5 µM (inactive); in the experiment with A498, 3.96 µM (inactive); in the experiment with KM12, 16.2 µM (inactive).

Regarding `Oc1cc(-c2c[nH]c3ccccc23)nc2cc3c(cc12)OCO3`, the GI50 in the experiment on SNB-19 is > 100 µM (inactive); with SF-539, > 100 µM (inactive); with SK-MEL-28, > 100 µM (inactive); with SW-620 it was > 100 µM (inactive); in the experiment on K562 it was > 100 µM (inactive); in the experiment on Malme-3M, 23.6 µM (inactive). The GI50 in the experiment on SR was > 100 µM (inactive); in the experiment with U-251, > 100 µM (inactive); in the experiment with UO-31, > 100 µM (inactive); with RXF 393, > 100 µM (inactive); with A549, > 100 µM (inactive); with SF-295 it was 92.3 µM (inactive). Moreover, the figures for the GI50 in the experiment on SNB-75, with OVCAR-3 and in the experiment with A498 were 21.6 µM (inactive), 8.61 µM (inactive) and > 100 µM (inactive), respectively.

Turning to `COC(=O)[C@]12CC3C=CC1N(C3)C(CBr)c1c2n(S(=O)(=O)c2ccccc2)c2ccccc12` (some centres not stated), the GI50 with SK-MEL-28 was > 100 µM (inactive); in the experiment with SW-620 it was > 100 µM (inactive); in the experiment with K562 it was 0.118 µM (active); in the experiment on Malme-3M, 72.9 µM (inactive); with U-251, 63 µM (inactive); with NCI-H522, 27.9 µM (inactive). Moreover, the GI50 in the experiment on UO-31 is > 100 µM (inactive); in the experiment with DU-145, > 100 µM (inactive); in the experiment on RXF 393, 33.2 µM (inactive); with A549, 50.5 µM (inactive); with SF-295, 42.2 µM (inactive); in the experiment with SNB-75 it was 25.9 µM (inactive). In addition, the GI50 was 97.7 µM (inactive) in the experiment with OVCAR-3, 39.9 µM (inactive) with Hs-578T and > 100 µM (inactive) in the experiment on KM12.

For `COc1ccc([C@]23CCN(S(=O)(=O)c4ccc(C)cc4)[C@H]2[C@H](CO)C2(CC3)OCC(C)(C)CO2)cc1OC`, the GI50 in the experiment with SNB-19, with SK-MEL-28, in the experiment on SW-620, with K562, with Malme-3M and in the experiment on SR was > 100 µM (inactive) in each case. Moreover, the GI50 in the experiment with U-251 is > 100 µM (inactive); in the experiment with NCI-H522, > 100 µM (inactive); in the experiment with UO-31 it was > 100 µM (inactive); in the experiment with DU-145, > 100 µM (inactive); in the experiment on RXF 393, 98.6 µM (inactive); in the experiment with A549, > 100 µM (inactive). The GI50 in the experiment on SF-295, with SNB-75, in the experiment with OVCAR-3, in the experiment on A498 and in the experiment with KM12 was > 100 µM (inactive) each time.

For the compound `Cc1c(-c2nc3ccccc3[nH]2)c(=O)n(-c2ccccc2)n1C`, the GI50 with SNB-19, with SF-539, in the experiment with SK-MEL-28, in the experiment with SW-620, in the experiment with K562 and with Malme-3M was > 100 µM (inactive) each time. Further, the GI50 in the experiment with U-251, in the experiment with NCI-H522, with UO-31, with DU-145, in the experiment on RXF 393 and with A549 was > 100 µM (inactive) in each case. Moreover, the GI50 in the experiment with SF-295, in the experiment on SNB-75, with OVCAR-3, with Hs-578T and in the experiment with KM12 was > 100 µM (inactive) in each case.

For the compound `COc1ccc(N2C(=O)C(C#N)=C(SC)C(C#N)C2=O)cc1` (configuration not stated), the GI50 is 66.5 µM (inactive) with SNB-19; > 100 µM (inactive) in the experiment on SF-539; > 100 µM (inactive) in the experiment with SW-620; > 100 µM (inactive) in the experiment with K562; > 100 µM (inactive) with Malme-3M; > 100 µM (inactive) in the experiment with U-251. The GI50 in the experiment on NCI-H522 is > 100 µM (inactive); with RXF 393 it was > 100 µM (inactive); with A549, > 100 µM (inactive); with SF-295, > 100 µM (inactive); in the experiment with SNB-75, 47.1 µM (inactive); in the experiment on Hs-578T, 22.8 µM (inactive). In addition, the GI50 with A498 and in the experiment on KM12 was > 100 µM (inactive) each time.

Turning to `O=C1CCCn2c(nc3ccccc32)N1`, the GI50 in the experiment on SNB-19, in the experiment with SF-539, with SW-620, with K562, in the experiment with Malme-3M and with SR was > 100 µM (inactive) throughout. Besides, the GI50 with U-251, with NCI-H522, with UO-31, in the experiment on RXF 393, in the experiment with A549 and in the experiment with SF-295 was > 100 µM (inactive) in each case. Moreover, the GI50 with SNB-75, in the experiment with OVCAR-3, in the experiment on Hs-578T, in the experiment with A498 and in the experiment with KM12 was > 100 µM (inactive) throughout.

With `CS(=O)(=O)c1ccc(C(=O)O[C@@H]2C(=O)N3CC[C@H]4OC(O)[C@@H]2[C@H]43)cc1` (some centres not stated), the GI50 in the experiment on SNB-19, in the experiment on SF-539, in the experiment on SK-MEL-28, in the experiment with SW-620, in the experiment on K562 and with SR was > 100 µM (inactive) in each case. In addition, the GI50 with U-251, in the experiment with UO-31, in the experiment with DU-145, in the experiment on RXF 393, with A549 and in the experiment with SF-295 was > 100 µM (inactive) throughout. Also, the GI50 is 58.1 µM (inactive) with SNB-75, > 100 µM (inactive) in the experiment on OVCAR-3, > 100 µM (inactive) in the experiment with A498 and > 100 µM (inactive) in the experiment on KM12.

Turning to `COC(=O)[C@@H](NC1(c2ccccc2)c2ccccc2-c2ccccc21)[C@H](OC(=O)[C@H]1CCCN1S(=O)(=O)c1ccccc1)C(=O)OC`, the GI50 in the experiment with SNB-19, in the experiment with SF-539, in the experiment with SK-MEL-28, in the experiment with SW-620, in the experiment with K562 and in the experiment on Malme-3M was > 100 µM (inactive) in each case. For the same compound, the GI50 is > 100 µM (inactive) in the experiment on SR; > 100 µM (inactive) with U-251; 82.2 µM (inactive) in the experiment on NCI-H522; > 100 µM (inactive) with UO-31; > 100 µM (inactive) in the experiment with DU-145; > 100 µM (inactive) in the experiment on RXF 393. In addition, the GI50 was > 100 µM (inactive) in the experiment with A549; > 100 µM (inactive) with SF-295; 63.2 µM (inactive) in the experiment on SNB-75; > 100 µM (inactive) in the experiment on OVCAR-3; > 100 µM (inactive) with A498; > 100 µM (inactive) in the experiment on KM12.
